Measurements as given in the NIST ThermoML archive (doi:10.1016/j.jct.2015.05.011).
± gives the expanded uncertainty stated by the source.

Assays:
[1] = Liquid; for viscosity: Falling or rolling sphere viscometry; for mass density: Vibrating tube method
[2] = refractive index (Na D-line) (dimensionless); conditions: 298.15 K; 100 kPa; Liquid; Standard Abbe refractometry
[3] = xn = mol fraction of the nth substance listed; conditions: 298.15 K; 100 kPa; Liquid; Falling or rolling sphere viscometry; x1 = 1
[4] = refractive index (Na D-line) (dimensionless); xn = mol fraction of the nth substance listed; conditions: 298.15 K; 100 kPa; Liquid; Standard Abbe refractometry; x1 = 1

Structure (SMILES) | viscosity ([1]; 288.15 K, 101.33 kPa) | mass density ([1]; 288.15 K, 101.33 kPa) | viscosity ([1]; 293.15 K, 101.33 kPa) | mass density ([1]; 293.15 K, 101.33 kPa) | viscosity ([1]; 298.15 K, 101.33 kPa) | mass density ([1]; 298.15 K, 101.33 kPa) | viscosity ([1]; 303.15 K, 101.33 kPa) | mass density ([1]; 303.15 K, 101.33 kPa) | viscosity ([1]; 308.15 K, 101.33 kPa) | mass density ([1]; 308.15 K, 101.33 kPa) | viscosity ([1]; 313.15 K, 101.33 kPa) | mass density ([1]; 313.15 K, 101.33 kPa) | viscosity ([1]; 318.15 K, 101.33 kPa) | mass density ([1]; 318.15 K, 101.33 kPa) | refractive index [2] | viscosity [3] | refractive index [4] | viscosity ([1]; 298.15 K, 100 kPa)
CCn1cc[n+](C)c1.N#C[C-](C#N)C#N [1-ethyl-3-methyl-1H-imidazolium tricyanomethanide] | 19.9 ± 0.43 mPa·s | 1088.49 ± 0.15 kg/m3 | 16.54 ± 0.35 mPa·s | 1084.93 ± 0.15 kg/m3 | 14 ± 0.3 mPa·s | 1081.38 ± 0.15 kg/m3 | 11.99 ± 0.26 mPa·s | 1077.84 ± 0.15 kg/m3 | 10.32 ± 0.22 mPa·s | 1074.33 ± 0.15 kg/m3 | 8.9 ± 0.19 mPa·s | 1070.83 ± 0.15 kg/m3 | 7.82 ± 0.17 mPa·s | 1067.35 ± 0.14 kg/m3 | 1.51227 ± 0.00036 | – | – | –
O [water] + CCn1cc[n+](C)c1.N#C[C-](C#N)C#N | – | – | – | – | – | – | – | – | – | – | – | – | – | – | – | 0.89 ± 0.02 mPa·s | 1.33252 ± 0.00035 | –
O [water] | – | – | – | – | – | – | – | – | – | – | – | – | – | – | 1.33252 ± 0.00035 | – | – | 0.89 ± 0.02 mPa·s
